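Test compounds were applied to cells in 96-well plates for 48 hours at 5 doses. GI50: concentration for 50% inhibition of growth.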 Calls of active or inactive are those of the source. Rule as the data show it: active = GI50 up to about 1.1 µM and inactive = higher.
Legend:
Experiment in all cases: NCI tumour cell line growth inhibition, 48 h
[1] = tested on: ACHN
[2] = tested on: DU-145
[3] = tested on: HOP-62
[4] = tested on: HOP-92
[5] = tested on: IGROV-1
[6] = tested on: LOX IMVI
[7] = tested on: M14
[8] = tested on: MCF7
[9] = tested on: NCI-H23
[10] = tested on: NCI-H522
[11] = tested on: NCI/ADR-RES
[12] = tested on: OVCAR-3
[13] = tested on: OVCAR-4
[14] = tested on: OVCAR-5
[15] = tested on: RXF 393
[16] = tested on: SF-295
[17] = tested on: SK-MEL-5
[18] = tested on: SNB-19
[19] = tested on: SW-620
[20] = tested on: HCC 2998

Measured: GI50

O=C1c2cc([N+](=O)[O-])ccc2-c2ccc3c4ccc5c6c(ccc(c7ccc1c2c73)c64)C(=O)c1cc([N+](=O)[O-])ccc1-5
inactive: [1] > 100 µM | [2] > 100 µM | [3] > 100 µM | [4] > 100 µM | [5] > 100 µM | [6] > 100 µM | [7] > 100 µM | [8] > 100 µM | [9] > 100 µM | [10] > 100 µM | [11] > 100 µM | [12] > 100 µM | [13] > 100 µM | [14] > 100 µM | [15] > 100 µM | [16] > 100 µM | [17] > 100 µM | [18] > 100 µM | [19] > 100 µM

NC(=O)c1csc(-c2ccc(CO)o2)n1
inactive: [1] > 100 µM | [2] > 100 µM | [4] > 100 µM | [5] > 100 µM | [6] > 100 µM | [7] > 100 µM | [8] > 100 µM | [9] > 100 µM | [10] > 100 µM | [11] > 100 µM | [12] > 100 µM | [13] > 100 µM | [14] > 100 µM | [15] > 100 µM | [16] > 100 µM | [17] > 100 µM | [18] > 100 µM | [19] > 100 µM

Cc1cc([N+](=O)[O-])c(C)c(Br)c1C
inactive: [1] > 100 µM | [2] > 100 µM | [3] > 100 µM | [4] 62.2 µM | [5] > 100 µM | [7] > 100 µM | [8] > 100 µM | [9] > 100 µM | [10] > 100 µM | [11] > 100 µM | [12] > 100 µM | [13] > 100 µM | [14] > 100 µM | [15] 60.5 µM | [16] > 100 µM | [17] > 100 µM | [18] > 100 µM | [19] > 100 µM

COc1ccc(-c2csc(Cc3nc4c(Br)cc(Br)cc4c(=O)n3-c3ccc(OC)cc3)n2)cc1
inactive: [1] 43.7 µM | [2] > 100 µM | [20] > 100 µM | [3] > 100 µM | [4] > 100 µM | [5] 73.3 µM | [6] > 100 µM | [7] 20.9 µM | [8] 63.1 µM | [9] 96.2 µM | [11] 50.9 µM | [12] > 100 µM | [13] > 100 µM | [14] 56.4 µM | [15] > 100 µM | [16] 59.4 µM | [17] 20.3 µM | [18] 18.9 µM | [19] 67 µM

Cc1ccc(N2CCN(CCC(=O)O)CC2)cc1
inactive: [1] > 100 µM | [2] > 100 µM | [3] > 100 µM | [4] > 100 µM | [5] > 100 µM | [6] > 100 µM | [7] > 100 µM | [8] > 100 µM | [9] > 100 µM | [10] > 100 µM | [11] > 100 µM | [12] > 100 µM | [13] > 100 µM | [14] > 100 µM | [15] > 100 µM | [16] > 100 µM | [17] > 100 µM | [18] > 100 µM | [19] > 100 µM

CCCCOC(=O)C1CN2C(=NC1(C(F)(F)F)C(F)(F)F)Sc1ccccc12 (configuration not stated)
inactive: [1] 30.3 µM | [2] 67.1 µM | [3] 82.4 µM | [4] 72.4 µM | [5] 11 µM | [6] 43.5 µM | [7] 44.1 µM | [8] 32.1 µM | [9] 24.5 µM | [11] 27 µM | [12] 58.5 µM | [13] 45.5 µM | [14] > 100 µM | [15] 24.1 µM | [16] 36.9 µM | [17] 20 µM | [18] 96.2 µM | [19] 49.5 µM

COc1cc2c(c(OC)c1OC)C(=O)[C@H]1OC(=O)N[C@@H]21
inactive: [1] > 100 µM | [2] > 100 µM | [20] > 100 µM | [3] > 100 µM | [4] > 100 µM | [6] > 100 µM | [7] > 100 µM | [8] > 100 µM | [9] > 100 µM | [11] > 100 µM | [12] > 100 µM | [13] > 100 µM | [14] > 100 µM | [15] > 100 µM | [16] > 100 µM | [18] > 100 µM | [19] > 100 µM

CC(=O)O[C@H]1CCC2[C@@H]3CCC4Cc5nc6c(nc5C[C@]4(C)C3CC[C@@]21C)CC1CC[C@@H]2C(CC[C@@]3(C)C2CC[C@@H]3C(C)CCCC(C)C)[C@@]1(C)C6 (some centres not stated)
inactive: [1] > 100 µM | [2] > 100 µM | [3] > 100 µM | [4] > 100 µM | [5] > 100 µM | [6] > 100 µM | [7] > 100 µM | [8] > 100 µM | [9] > 100 µM | [11] > 100 µM | [12] > 100 µM | [13] > 100 µM | [14] > 100 µM | [15] > 100 µM | [16] > 100 µM | [17] > 100 µM | [18] > 100 µM | [19] > 100 µM

O=c1c(-c2ccccc2Cl)coc2cc(F)ccc12
inactive: [1] > 100 µM | [2] 27 µM | [3] 22.2 µM | [4] 18.6 µM | [5] 6.07 µM | [6] 13.2 µM | [7] 14.3 µM | [8] 21.7 µM | [9] 37.3 µM | [10] 10.6 µM | [11] 19.5 µM | [12] 30.7 µM | [13] > 100 µM | [14] 27.1 µM | [15] 22.1 µM | [16] 19.4 µM | [17] 27.3 µM | [18] 22.9 µM | [19] 30.6 µM

CC(C)=C/C(CC(O)(C(F)(F)F)C(F)(F)F)=N\O
inactive: [1] > 100 µM | [2] > 100 µM | [20] > 100 µM | [3] > 100 µM | [4] > 100 µM | [5] > 100 µM | [6] > 100 µM | [7] > 100 µM | [8] > 100 µM | [9] > 100 µM | [11] > 100 µM | [13] > 100 µM | [14] > 100 µM | [15] > 100 µM | [16] > 100 µM | [17] > 100 µM | [18] > 100 µM | [19] > 100 µM

Nc1ccccc1.O=C(O)C(C(F)(F)F)C(F)(F)F
inactive: [1] > 100 µM | [2] 99.5 µM | [3] > 100 µM | [4] > 100 µM | [5] > 100 µM | [6] > 100 µM | [7] > 100 µM | [8] > 100 µM | [9] > 100 µM | [10] > 100 µM | [11] > 100 µM | [12] > 100 µM | [13] > 100 µM | [14] > 100 µM | [15] > 100 µM | [16] > 100 µM | [17] > 100 µM | [18] > 100 µM | [19] > 100 µM

— ChEMBL document CHEMBL1201862, “PubChem BioAssay data set” (2004)
